These are literature values, as cited in article PMC7604311, “Caprine Bactenecins as Promising Tools for Developing New Antimicrobial and Antitumor Drugs” (Frontiers in Cellular and Infection Microbiology, 2020).

Test systems include E. coli ESBL 521/17; P. aeruginosa MDR 522/17; S. aureus 1399/17.
Design in all cases: key to Susceptibility category: R – resistant; I – intermediate; S – susceptible
Holding throughout (conditions): initial susceptibility testing of the clinical isolate; ref supplying institutions; cited from earlier work

Data set [1] relates to K. pneumoniae ESBL 344/17.
The next data set has as its system A. baumannii 7226/16. The source says:
page 1: Supplementary Material Supplementary Table 1. Susceptibility profiles of tested clinical isolates of bacteria. Gram-negative: Gram-positive: antibiotic E. coli A. baumannii P. aeruginosa K. pneumoniae antibiotic S. aureus ESBL 521/17 7226/16 MDR 522/17 ESBL 344/17 1399/17 AMP* R [≥32] R [≥32 ] R [≥32 ] R [≥32] AMP* R [≥32 ] AMC R [16] - - S [≤2] AMC - CTX R [≥64] - - S [≤1] AMX - CAZ R [≥64] - R [≥64] S [≤1] AZM R [≥4] FEP R [≥64] - R [≥64] S [≤1] VAN S [≤2] ATM R [≥64] - - S [≤1] DOX I [2] IPM S [≤1] R [≥16] I [8] S [≤1] CLI I [2] MEM S [≤0.25 ] R [≥32 ] R [≥16] S [≤0.25] MEM I [4] AM ...

For `CCN[C@@H]1C[C@H](N)[C@@H](O[C@H]2OC(CN)=CC[C@H]2N)[C@H](O)[C@H]1O[C@H]1OC[C@](C)(O)[C@H](NC)[C@H]1O` [NET, netilmicin], the MIC of antibiotic with E. coli ESBL 521/17 was 8 µg/mL; with P. aeruginosa MDR 522/17 it was at least 32 µg/mL; in data set [1], at most 1 µg/mL. In addition, the Susceptibility category result in the data set on E. coli ESBL 521/17 is on record as “R”; in the data set on P. aeruginosa MDR 522/17 it was “R”; in data set [1], “S”.

In the case of `CC1COc2c(N3CCN(C)CC3)c(F)cc3c(=O)c(C(=O)O)cn1c23` (centres unmarked) [OFL, ofloxacin], in the data set with S. aureus 1399/17, the MIC of antibiotic is at least 32 µg/mL and the Susceptibility category entry is recorded as “R”.

As to `CC(C)(O/N=C(\C(=O)N[C@@H]1C(=O)N2C(C(=O)[O-])=C(C[n+]3ccccc3)CS[C@H]12)c1csc(N)n1)C(=O)O` [CAZ, ceftazidime], the MIC of antibiotic in the data set on E. coli ESBL 521/17 is at least 64 µg/mL; in the data set on P. aeruginosa MDR 522/17, at least 64 µg/mL; in data set [1], at most 1 µg/mL. Besides, the figures for the Susceptibility category entry (in the data set with E. coli ESBL 521/17; with P. aeruginosa MDR 522/17; in data set [1]) were “R”, “R” and “S”, respectively.

Regarding `CCC[C@@H]1C[C@@H](C(=O)N[C@@H]([C@H]2O[C@H](SC)[C@H](O)[C@@H](O)[C@H]2O)[C@H](C)Cl)N(C)C1` [CLI, clindamycin], in the data set with S. aureus 1399/17, the MIC of antibiotic was 2 µg/mL and the Susceptibility category entry was “I”.

Regarding amoxicillin–clavulanic acid [AMC], in the data set with E. coli ESBL 521/17, the MIC of antibiotic is 16 µg/mL and the Susceptibility category entry is “R”. In data set [1], the MIC of antibiotic is at most 2 µg/mL and the Susceptibility category result is “S”.

For the compound `Cc1onc(-c2ccccc2)c1C(=O)N[C@@H]1C(=O)N2[C@@H]1SC(C)(C)[C@@H]2C(=O)O` [OX, oxacillin], in the data set with S. aureus 1399/17, the MIC of antibiotic is at least 32 µg/mL and the Susceptibility category entry was “R”.

Turning to `CN[C@H](CC(C)C)C(=O)N[C@H]1C(=O)N[C@@H](CC(N)=O)C(=O)N[C@H]2C(=O)N[C@H]3C(=O)N[C@H](C(=O)N[C@H](C(=O)O)c4cc(O)cc(O)c4-c4cc3ccc4O)[C@H](O)c3ccc(c(Cl)c3)Oc3cc2cc(c3O[C@@H]2O[C@H](CO)[C@@H](O)[C@H](O)[C@H]2O[C@H]2C[C@](C)(N)[C@H](O)[C@H](C)O2)Oc2ccc(cc2Cl)[C@H]1O` [VAN, vancomycin], in the data set with S. aureus 1399/17, the MIC of antibiotic was at most 2 µg/mL and the Susceptibility category entry was “S”.

For `CC1(C)S[C@@H]2[C@H](NC(=O)[C@H](N)c3ccccc3)C(=O)N2[C@H]1C(=O)O` [AMP*, ampicillin], the MIC of antibiotic (in the data set with E. coli ESBL 521/17; in the data set with A. baumannii 7226/16; in the data set with P. aeruginosa MDR 522/17; in data set [1]; with S. aureus 1399/17) was at least 32 µg/mL throughout. The Susceptibility category entry (in the data set on E. coli ESBL 521/17; with A. baumannii 7226/16; in the data set on P. aeruginosa MDR 522/17; in data set [1]; in the data set on S. aureus 1399/17) was “R” throughout.

For the compound `CO/N=C(\C(=O)N[C@@H]1C(=O)N2C(C(=O)[O-])=C(C[N+]3(C)CCCC3)CS[C@H]12)c1csc(N)n1` [FEP, cefepime], the MIC of antibiotic was at least 64 µg/mL in the data set with E. coli ESBL 521/17, at least 64 µg/mL in the data set on P. aeruginosa MDR 522/17 and at most 1 µg/mL in data set [1]. Besides, the Susceptibility category entry is “R” with E. coli ESBL 521/17, “R” in the data set with P. aeruginosa MDR 522/17 and “S” in data set [1].

Turning to `CO/N=C(\C(=O)N[C@@H]1C(=O)N2C(C(=O)O)=C(COC(C)=O)CS[C@H]12)c1csc(N)n1` [CTX, cefotaxime], the results for the MIC of antibiotic (with E. coli ESBL 521/17; in data set [1]) were at least 64 µg/mL and at most 1 µg/mL, respectively. In addition, the Susceptibility category entry in the data set on E. coli ESBL 521/17 is “R”; in data set [1] it was “S”.

On to `CN(C)c1cc(NC(=O)CNC(C)(C)C)c(O)c2c1C[C@H]1C[C@H]3[C@H](N(C)C)C(O)=C(C(N)=O)C(=O)[C@@]3(O)C(O)=C1C2=O` [TGC, tigecycline], for which, in the data set on A. baumannii 7226/16, the MIC of antibiotic is 4 µg/mL and the Susceptibility category result is on record as “I”.

trimethoprim–sulfamethoxazole [SXT]: the MIC of antibiotic is at least 320 µg/mL in the data set with E. coli ESBL 521/17, at least 320 µg/mL with A. baumannii 7226/16 and at most 20 µg/mL in data set [1]. The figures for the Susceptibility category entry (in the data set with E. coli ESBL 521/17; in the data set on A. baumannii 7226/16; in data set [1]) were “R”, “R” and “S”, respectively.

In the case of `C[C@H]1[C@H](NC(=O)/C(=N\OC(C)(C)C(=O)O)c2csc(N)n2)C(=O)N1S(=O)(=O)O` [ATM, aztreonam], in the data set with E. coli ESBL 521/17, the MIC of antibiotic is at least 64 µg/mL and the Susceptibility category result is reported as “R”. Besides, in data set [1], the MIC of antibiotic was at most 1 µg/mL and the Susceptibility category entry is “S”.

colistin [CST]: the MIC of antibiotic was at most 0.5 µg/mL with E. coli ESBL 521/17, at least 16 µg/mL with P. aeruginosa MDR 522/17 and at most 0.5 µg/mL in data set [1]. For the same compound, the Susceptibility category entry in the data set with E. coli ESBL 521/17 is listed as “S”; in the data set with P. aeruginosa MDR 522/17 it was “R”; in data set [1], “S”.

With `C[C@H]1COc2c(N3CCN(C)CC3)c(F)cc3c(=O)c(C(=O)O)cn1c23` [LVX, levofloxacin], in the data set on S. aureus 1399/17, the MIC of antibiotic is at most 1 µg/mL and the Susceptibility category result is given as “S”.

For `C[C@H]1c2cccc(O)c2C(=O)C2=C(O)[C@]3(O)C(=O)C(C(N)=O)=C(O)[C@@H](N(C)C)[C@@H]3[C@@H](O)[C@@H]21` [DOX, doxycycline], in the data set on S. aureus 1399/17, the MIC of antibiotic is 2 µg/mL and the Susceptibility category result was “I”.

ampicillin-sulbactam [SAM]: in the data set with A. baumannii 7226/16, the MIC of antibiotic is 16 µg/mL and the Susceptibility category entry is “I”.

On to `O=C1CN(/N=C/c2ccc([N+](=O)[O-])o2)C(=O)N1` [NIT, nitrofurantoin], for which, in the data set with E. coli ESBL 521/17, the MIC of antibiotic is 128 µg/mL and the Susceptibility category entry is “R”.

Regarding `CC[C@H]1OC(=O)[C@H](C)[C@@H](O[C@H]2C[C@@](C)(OC)[C@@H](O)[C@H](C)O2)[C@H](C)[C@@H](O[C@@H]2O[C@H](C)C[C@H](N(C)C)[C@H]2O)[C@](C)(O)C[C@@H](C)/C(=N\OCOCCOC)[C@H](C)[C@@H](O)[C@]1(C)O` [RXM, roxithromycin], in the data set with S. aureus 1399/17, the MIC of antibiotic is 2 µg/mL and the Susceptibility category entry is listed as “I”.

Take `CC[C@H]1OC(=O)[C@H](C)[C@@H](O[C@H]2C[C@@](C)(OC)[C@@H](O)[C@H](C)O2)[C@H](C)[C@@H](O[C@@H]2O[C@H](C)C[C@H](N(C)C)[C@H]2O)[C@](C)(O)C[C@@H](C)CN(C)[C@H](C)[C@@H](O)[C@]1(C)O` [AZM, azithromycin]: in the data set on S. aureus 1399/17, the MIC of antibiotic is at least 4 µg/mL and the Susceptibility category result was “R”.

Take `C[C@@H](O)[C@H]1C(=O)N2C(C(=O)O)=C(SCCN=CN)C[C@H]12` [IPM, imipenem]: the MIC of antibiotic with E. coli ESBL 521/17 was at most 1 µg/mL; in the data set with A. baumannii 7226/16, at least 16 µg/mL; with P. aeruginosa MDR 522/17, 8 µg/mL; in data set [1], at most 1 µg/mL. The Susceptibility category result in the data set on E. coli ESBL 521/17 is given as “S”; in the data set with A. baumannii 7226/16, “R”; in the data set on P. aeruginosa MDR 522/17 it was “I”; in data set [1], “S”.

For the compound `C[C@@H]1O[C@@H]1P(=O)(O)O` [FOF, fosfomycin], in the data set with E. coli ESBL 521/17, the MIC of antibiotic is at most 16 µg/mL and the Susceptibility category entry is reported as “S”. Further, in data set [1], the MIC of antibiotic was at most 16 µg/mL and the Susceptibility category result is listed as “S”.
